Paper PMC5893419 (Bioorganic & medicinal chemistry letters, 2018)
Converted amounts (≈) assume the structure as drawn.

What was measured:
[1] = tested on: MRSA COL; assay: microbe, parasite or virus in culture; conditions: Staphylococcus aureus, 20 h
[2] = tested on: Staphylococcus spp.; assay: Antistaphylococcal activity, summary of broth microdilution MICs; format: cell-based
[3] = tested on: methicillin-resistant Staphylococcus aureus (MRSA); conditions: in vitro growth of MRSA; cited from earlier work
[4] = tested on: VAN-resistant S. aureus (VRSA); conditions: against VRSA; cited from earlier work
[5] = tested on: Micrococcus luteus SK58; assay: microbe, parasite or virus in culture; format: cell-based
[6] = range over staphylococcal strains of Table 1
[7] = range over staphylococcal strains, converted from μM

| SMILES | MIC range, antistaphylococcal activity [2, 6] [µM] | MIC range, antistaphylococcal activity [2, 7] [µg/mL] | other results |
| --- | --- | --- | --- |
| CN[C@H](CC(C)C)C(=O)N[C@H]1C(=O)N[C@@H](CC(N)=O)C(=O)N[C@H]2C(=O)N[C@H]3C(=O)N[C@H](C(=O)N[C@H](C(=O)O)c4cc(O)cc(O)c4-c4cc3ccc4O)[C@H](O)c3ccc(c(Cl)c3)Oc3cc2cc(c3O[C@@H]2O[C@H](CO)[C@@H](O)[C@H](O)[C@H]2O[C@H]2C[C@](C)(N)[C@H](O)[C@H](C)O2)Oc2ccc(cc2Cl)[C@H]1O [vancomycin] |  |  | MIC [1]: 2 µg/mL (≈ 1.38 µM) |
| CCCCCCCSSC(=S)N(CC)CC [1i] | 2 to 4 | 0.6 to 1.2 |  |
| CCN(CC)C(=S)SSC(=S)N(CC)CC [disulfiram] |  |  | minimum inhibitory concentration (MIC) range [3]: 4 to 32 µg/mL; interaction with vancomycin (VAN) [4]: synergism |
| CCCCCCCCSSC(=S)N(CC)CC [1j, 1-[(diethylcarbamothioyl)disulfanyl]octane] | 2 to 4 | 0.6 to 1.2 | MIC [5]: > 32 µM |
